Where no end group is shown, it is not given here.
Molecular target: T1, Ca^2+/CaM-N (Homo sapiens, UniProt P0DP23)
T1 construct: ^15N-labled samples of the isolated Ca^2+/CaM-N and Ca^2+/CaM-C domains; made in house
Experiment: NMR titration (2D 1H-15N HSQC) of isolated N-terminal lobe
Format: binding
Settings: 1H-15N HSQC titration
Procedure: NMR data were collected at 35°C on a Bruker Avance II (700 MHz ^1H) spectrometer equipped with a cryogenic triple-resonance probe, processed with NMRPIPE [35] and analyzed with NMRVIEW [36] or CCPN Analysis. […] For signal assignments of the complexes, ^13C-, ^15N-, or ^13C-/^15N-labeled Ca^2+/CaM at ~400–500 μM was mixed with unlabeled Fas-Pep1 (in 100% DMSO-d6) or Fas-Pep2 at 1.5:1 peptide:Ca^2+/CaM. […] The backbone atom resonances of Ca^2+/CaM complexes with Fas-Pep1 and Fas-Pep2 were assigned using HNCA, HN(CO)CA, HNCACB, HNCO, HN(CO)CACB and ^15N-edited NOESY-HSQC and TOCSY-HSQC experiments. These experiments have been also collected on ^15N-, or ^13C-/^15N-labeled Fas-Pep2 in complex with unlabeled Ca^2+/CaM to confirm the α-helical character of Fas-Pep2 when bound to Ca^2+/CaM. […] Combined ^1H-^15N chemical shift changes were calculated as ΔδHN = [(ΔδH)^2+(ΔδN/5)^2]^1/2, where ΔδH and ΔδN are the ^1H and ^15N chemical shift changes, respectively. Kd values were calculated by non-linear least-square fitting algorithm in Origin software (OriginLab, Northampton, MA) using the equation: ΔδHN=ΔδHN^max((Kd+L0+P0)−((Kd+L0+P0)^2−4*P0*L0)^0.5)/(2*P0) where ΔδHN^max is the chemical shift change between complex and free protein, L0 total concentration of ligand, and P0 total concentration of protein. […]

For “VQDTAEQKVQLLRNWHQLHGKKEAYDTLIKDLKKANLC [Fas-Pep2]”, the “CSPs on Ca^2+/CaM-N” value was “significant CSPs for numerous residues”.
